The values that follow come from ChEMBL document CHEMBL1138637, “Discovery of potent pyrrolidone-based HIV-1 protease inhibitors with enhanced drug-like properties” (Bioorg Med Chem Lett, 2004).

Molecules are shown by their SMILES.

The Ki is the dissociation constant of the complex between target and ligand, obtained from inhibition or displacement. High values mean weaker binding, low ones tighter binding. As usually defined, the IC50 is the point on the concentration scale where inhibition reaches its midpoint.

In the first test the target is T1, Human immunodeficiency virus type 1 protease (Human immunodeficiency virus 1, UniProt Q72874). Description: Potency to inhibit HIV-1 protease.
`O=C(NCCN1CCOCC1)c1cccc(C[C@H]2C[C@H](Cc3ccccc3)N(C[C@@H](O)C[C@@H](Cc3ccccc3)C(=O)N[C@@H]3c4ccccc4C[C@H]3O)C2=O)c1` showed an inhibition constant (Ki) of 0.15 nM.
Take `O=C(NCCOCCO)c1cccc(C[C@H]2C[C@H](Cc3ccccc3)N(C[C@@H](O)C[C@@H](Cc3ccccc3)C(=O)N[C@@H]3c4ccccc4C[C@H]3O)C2=O)c1`: the Ki is 0.24 nM.
Still for that read-out and setting: next, `Nc1ccc(CC2C[C@H](Cc3ccccc3)N(C[C@@H](O)C[C@@H](Cc3ccccc3)C(=O)NC3c4ccccc4C[C@H]3O)C2=O)cc1` (stereo not given in full): 2.3 nM.
Same read-out and setting: with `CCNC(=O)Nc1cccc(C[C@H]2C[C@H](Cc3ccccc3)N(C[C@@H](O)C[C@@H](Cc3ccccc3)C(=O)NC3c4ccccc4C[C@H]3O)C2=O)c1` (stereo not given in full) the figure was 0.2 nM; with `O=C(NC1c2ccccc2C[C@H]1O)[C@H](Cc1ccccc1)C[C@H](O)CN1C(=O)C(Cc2ccncc2)C[C@@H]1Cc1ccccc1` (stereo not given in full), 0.31 nM.
On the same count and under the same terms, with `C=CC[C@H]1C[C@H](Cc2ccccc2)N(C[C@@H](O)C[C@@H](Cc2ccccc2)C(=O)NC2c3ccccc3C[C@H]2O)C1=O` (stereo not given in full) the figure was 0.45 nM.
In turn, `NC(=O)c1cccc(C[C@H]2C[C@H](Cc3ccccc3)N(C[C@@H](O)C[C@@H](Cc3ccccc3)C(=O)N[C@@H]3c4ccccc4C[C@H]3O)C2=O)c1` displayed a Ki of 0.1 nM.
In turn, `NC(=O)Cc1cccc(C[C@H]2C[C@H](Cc3ccccc3)N(C[C@@H](O)C[C@@H](Cc3ccccc3)C(=O)NC3c4ccccc4C[C@H]3O)C2=O)c1` (stereo not given in full) displayed a Ki of 0.09 nM.
Turning to `N#CCOc1cccc(C[C@H]2C[C@H](Cc3ccccc3)N(C[C@@H](O)C[C@@H](Cc3ccccc3)C(=O)NC3c4ccccc4C[C@H]3O)C2=O)c1` (stereo not given in full), the Ki amounted to 0.08 nM.
`CCOC(=O)CNC(=O)Nc1cccc(C[C@H]2C[C@H](Cc3ccccc3)N(C[C@@H](O)C[C@@H](Cc3ccccc3)C(=O)N[C@@H]3c4ccccc4C[C@H]3O)C2=O)c1`: the Ki came out at 0.1 nM.
Same read-out and setting: with `NC(=O)c1cccc(C[C@H]2C[C@H](Cc3ccccc3)N(C[C@@H](O)C[C@@H](Cc3ccc(OCCO)cc3)C(=O)N[C@@H]3c4ccccc4C[C@H]3O)C2=O)c1` the figure was 0.05 nM; with `N#Cc1ccc(CC2C[C@H](Cc3ccccc3)N(C[C@@H](O)C[C@@H](Cc3ccccc3)C(=O)NC3c4ccccc4C[C@H]3O)C2=O)cc1` (stereo not given in full), 0.34 nM; with `N#Cc1cccc(CC2C[C@H](Cc3ccccc3)N(C[C@@H](O)C[C@@H](Cc3ccccc3)C(=O)NC3c4ccccc4C[C@H]3O)C2=O)c1` (single isomer, unassigned; diastereomer 1), 0.05 nM.
Same read-out and setting: next, `COC(=O)c1cccc(CC2C[C@H](Cc3ccccc3)N(C[C@@H](O)C[C@@H](Cc3ccccc3)C(=O)NC3c4ccccc4C[C@H]3O)C2=O)c1` (single isomer, unassigned; diastereomer 1): 0.42 nM; `O=C(NC1c2ccccc2C[C@H]1O)[C@H](Cc1ccccc1)C[C@H](O)CN1C(=O)C(Cc2cccc(O)c2)C[C@@H]1Cc1ccccc1` (single isomer, unassigned; diastereomer 1): 0.05 nM; `Nc1cccc(CC2C[C@H](Cc3ccccc3)N(C[C@@H](O)C[C@@H](Cc3ccccc3)C(=O)NC3c4ccccc4C[C@H]3O)C2=O)c1` (single isomer, unassigned; diastereomer 1): 0.1 nM.
As for `O=C(NC1c2ccccc2C[C@H]1O)[C@H](Cc1ccccc1)C[C@H](O)CN1C(=O)C(Cc2cccnc2)C[C@@H]1Cc1ccccc1` (single isomer, unassigned; diastereomer 2), affinity was put at a Ki of 14 nM.
On the same count and under the same terms, next, `O=C(NC1c2ccccc2C[C@H]1O)[C@H](Cc1ccccc1)C[C@H](O)CN1C(=O)C(Cc2cccnc2)C[C@@H]1Cc1ccccc1` (stereo in doubt): 0.17 nM.

In another test the target is T1, Human immunodeficiency virus type 1 protease. Nature of the test: Concentration required to in inhibit HIV-1 protease by 50%.
For the molecule `C=CCC1OC[C@H](Cc2ccccc2)N(C[C@H](O)CN(CC2CCCC2)S(=O)(=O)c2ccc(OC)cc2)C1=O` (stereo not given in full), the IC50 is 2 nM.
Regarding `COc1ccc(S(=O)(=O)N(CC2CCCC2)C[C@@H](O)CN2C(=O)C(Cc3ccccc3)OC[C@@H]2Cc2ccccc2)cc1` (stereo not given in full), the half-inhibitory concentration (IC50) is 30 nM.
